What follows are molecules tested on Bacillus subtilis (assay: Antibacterial activity against Bacillus subtilis ATCC 6633 at 100 ug/disk after 10 hrs by disk diffusion assay). Conditions: ATCC 6633, 10 h, read-out: DIZ.
Format: functional

Q: How did the zone of inhibition at 100 µg/disc turn out when `C[C@@H]1C[C@H](N(C)C)[C@@H](O)[C@H](O[C@H]2[C@@H](C)C[C@@H](C)C(=O)/C=C/[C@](C)(O)[C@@H]([C@@H](C)O)OC(=O)[C@@H]2C)O1` [NOVAMETHYMYCIN] was run?
A: 18 mm

Q: For `CC[C@H]1OC(=O)[C@H](C)[C@@H](O[C@@H]2O[C@H](C)C[C@H](N(C)C)[C@H]2O)[C@@H](C)C[C@@H](C)C(=O)/C=C/[C@]1(C)O` [METHYMYCIN], which zone of inhibition at 100 µg/disc is on record?
A: 18 mm

Q: For `CC[C@H]1OC(=O)[C@H](C)[C@@H](O[C@@H]2O[C@H](C)C[C@H](N(C)C)[C@H]2O)[C@@H](C)C[C@@H](C)C(=O)/C=C/[C@H]1C`, which zone of inhibition at 100 µg/disc is on record?
A: 16 mm

Q: With `C[C@@H]1C[C@H](N(C)C)[C@@H](O)[C@H](O[C@H]2[C@@H](C)C[C@@H](C)C(=O)/C=C/[C@@H](C)[C@@H]([C@@H](C)O)OC(=O)[C@@H]2C)O1` [NEOMETHYMYCIN] as the molecule, how does the zone of inhibition at 100 µg/disc read?
A: 20 mm

From ChEMBL document CHEMBL1156375, “Isolation and structure determination of novamethymycin, a new bioactive metabolite of the methymycin biosynthetic pathway in Streptomyces venezuelae” (2001)
